# Legend:
# P. aeruginosa CDC-0090 = assay: microbe, parasite or virus in culture; type: cell-based; details: Pseudomonas aeruginosa, CDC0090, read-out: Minimum inhibitory concentration, P. aeruginosa CDC-0090
# [1] = test system: B. thailandensis ATCC 700388; assay: microbe, parasite or virus in culture; type: cell-based; details: Burkholderia thailandensis, ATCC700388, read-out: Minimum inhibitory concentration (MIC), B. thailandensis ATCC 700388
# P. aeruginosa CDC-0054 = assay: microbe, parasite or virus in culture; type: cell-based; details: Pseudomonas aeruginosa, CDC0054, read-out: Minimum inhibitory concentration, P. aeruginosa CDC-0054
# [2] = test system: B. humptydooensis ATCC BAA-2767; assay: microbe, parasite or virus in culture; type: cell-based; details: Burkholderia humptydooensis, ATCCBAA2767, read-out: Minimum inhibitory concentration (MIC), B. humptydooensis ATCC BAA-2767
# P. aeruginosa CDC-0110 = assay: microbe, parasite or virus in culture; type: cell-based; details: Pseudomonas aeruginosa, CDC0110, read-out: Minimum inhibitory concentration, P. aeruginosa CDC-0110
# B. pseudomallei Bp82 = assay: microbe, parasite or virus in culture; type: cell-based; details: Burkholderia pseudomallei, BP82, read-out: Minimum inhibitory concentration, B. pseudomallei Bp82
# P. aeruginosa ATCC 27853 = assay: microbe, parasite or virus in culture; type: cell-based; details: Pseudomonas aeruginosa, ATCC27853, read-out: Minimum inhibitory concentration, P. aeruginosa ATCC 27853
# [3] = test system: P. aeruginosa (ΔmexAB-oprM); assay: Broth microdilution MIC in iron-depleted CAMHB (IDM); type: cell-based; details: Pseudomonas aeruginosa, read-out: Minimum inhibitory concentration, P. aeruginosa ΔmexAB-oprM
# P. aeruginosa ATCC 35151 = assay: microbe, parasite or virus in culture; type: cell-based; details: Pseudomonas aeruginosa, ATCC35151, read-out: Minimum inhibitory concentration, P. aeruginosa ATCC 35151
# P. aeruginosa CDC-0095 = assay: microbe, parasite or virus in culture; type: cell-based; details: Pseudomonas aeruginosa, CDC0095, read-out: Minimum inhibitory concentration, P. aeruginosa CDC-0095
# A. baumannii PBP2 = A. baumannii PBP2 (Acinetobacter baumannii, UniProt D0C8Z9); assay: Bocillin-FL competition binding via gel filtration, A. baumannii PBP2
# Method in brief: (§1)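 Competitive equilibrium binding with Bocillin-FL reporter: PBP pre-incubated with inhibitor dilutions, Bocillin-FL added, 15 min incubation. Labelled enzyme isolated by size-exclusion spin plates, fluorescence measured; EC50 obtained by fitting bound fraction against inhibitor concentration with a Hill-coefficient model.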
# A. baumannii PBP1a = target: T1, A. baumannii PBP1a (Acinetobacter baumannii, UniProt A0ABX6CK30); assay: Bocillin-FL competition binding via gel filtration, A. baumannii PBP1a; details: competition binding assay using Bocillin-FL via gel filtration; read-out: A. baumannii PBP1a Potency
# T1 sequence (A0ABX6CK30 1-851): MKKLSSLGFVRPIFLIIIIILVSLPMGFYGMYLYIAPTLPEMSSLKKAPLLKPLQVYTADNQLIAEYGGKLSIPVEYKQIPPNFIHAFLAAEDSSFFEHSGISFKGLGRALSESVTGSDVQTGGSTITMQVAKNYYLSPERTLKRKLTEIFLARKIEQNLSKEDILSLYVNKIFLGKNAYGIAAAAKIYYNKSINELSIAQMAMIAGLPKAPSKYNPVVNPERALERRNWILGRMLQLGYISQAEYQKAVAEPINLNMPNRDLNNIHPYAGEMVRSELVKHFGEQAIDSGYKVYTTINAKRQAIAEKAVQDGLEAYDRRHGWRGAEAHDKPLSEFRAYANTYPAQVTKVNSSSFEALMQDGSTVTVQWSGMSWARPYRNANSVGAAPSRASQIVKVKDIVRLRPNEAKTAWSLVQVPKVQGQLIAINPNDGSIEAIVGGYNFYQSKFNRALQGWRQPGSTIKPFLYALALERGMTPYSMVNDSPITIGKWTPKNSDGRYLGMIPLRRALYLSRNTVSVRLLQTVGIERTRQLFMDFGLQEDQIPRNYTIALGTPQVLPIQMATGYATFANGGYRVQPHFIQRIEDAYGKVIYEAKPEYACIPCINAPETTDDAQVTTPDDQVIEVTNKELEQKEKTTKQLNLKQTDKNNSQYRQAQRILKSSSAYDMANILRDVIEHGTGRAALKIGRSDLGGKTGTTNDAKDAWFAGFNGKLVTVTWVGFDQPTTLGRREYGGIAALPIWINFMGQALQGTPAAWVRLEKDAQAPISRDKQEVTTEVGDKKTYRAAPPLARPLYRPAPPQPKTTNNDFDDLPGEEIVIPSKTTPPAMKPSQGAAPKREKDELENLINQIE
# Method in brief: as §1
# Sequence of A. baumannii PBP2 (D0C8Z9 whole entry): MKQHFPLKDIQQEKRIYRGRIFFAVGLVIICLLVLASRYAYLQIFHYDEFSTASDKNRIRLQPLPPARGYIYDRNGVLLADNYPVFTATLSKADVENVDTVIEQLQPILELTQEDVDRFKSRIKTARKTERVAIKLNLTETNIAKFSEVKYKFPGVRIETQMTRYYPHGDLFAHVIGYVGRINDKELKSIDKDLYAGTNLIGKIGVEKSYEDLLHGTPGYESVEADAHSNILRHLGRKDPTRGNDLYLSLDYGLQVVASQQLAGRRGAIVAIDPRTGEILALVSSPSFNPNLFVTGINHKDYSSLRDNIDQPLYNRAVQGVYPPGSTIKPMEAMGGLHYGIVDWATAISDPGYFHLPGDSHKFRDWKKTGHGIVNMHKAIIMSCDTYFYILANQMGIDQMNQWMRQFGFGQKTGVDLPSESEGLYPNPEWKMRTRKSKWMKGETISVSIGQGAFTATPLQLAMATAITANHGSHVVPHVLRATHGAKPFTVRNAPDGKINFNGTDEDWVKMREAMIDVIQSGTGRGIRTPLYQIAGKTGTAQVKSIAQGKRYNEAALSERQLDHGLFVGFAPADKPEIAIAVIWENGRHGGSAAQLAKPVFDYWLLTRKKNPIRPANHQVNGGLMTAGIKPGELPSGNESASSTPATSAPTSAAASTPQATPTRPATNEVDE
Structure (SMILES),MIC (P. aeruginosa CDC-0090) [µg/mL],MIC [1] [µg/mL],MIC (P. aeruginosa CDC-0054) [µg/mL],MIC [2] [µg/mL],MIC (P. aeruginosa CDC-0110) [µg/mL],MIC (B. pseudomallei Bp82) [µg/mL],MIC (P. aeruginosa ATCC 27853) [µg/mL],MIC [3] [µg/mL],MIC (P. aeruginosa ATCC 35151) [µg/mL],MIC (P. aeruginosa CDC-0095) [µg/mL],EC50 (A. baumannii PBP2) [µM],EC50 (A. baumannii PBP1a) [µM]
"O=C(O)c1c(F)ccc2c1OB(O)[C@@H](NC(=O)[C@H](NC(=O)N1CCN(C3CCN(Cc4ccncn4)CC3)C1=O)c1cc(F)c(O)c(O)c1Cl)C2 [Example 602, (R)-3-((R)-2-(2-chloro-5-fluoro-3,4-dihydroxyphenyl)-2-(2-oxo-3-(1-(pyrimidin-4-ylmethyl)piperidin-4-yl)imidazolidine-1-carboxamido)acetamido)-7-fluoro-2-hydroxy-3,4-dihydro-2H-benzo[e][1,2]oxaborinine-8-carboxylic acid]",< 1,< 1,< 1,< 1,< 1,< 1,< 1,< 1,< 1,2 to 4,10 to 50,< 10
"NCc1cc(O)cc(CN2CCC(N3CCN(C(=O)N[C@@H](C(=O)N[C@H]4Cc5ccc(F)c(C(=O)O)c5OB4O)c4cc(F)c(O)c(O)c4Cl)C3=O)CC2)c1 (single isomer, unassigned) [Example 617]",< 1,< 1,< 1,< 1,< 1,< 1,< 1,< 1,< 1,< 1,50 to 250,10 to 50
"Nc1cc(CN2CCC(N3CCN(C(=O)N[C@@H](C(=O)N[C@H]4Cc5ccc(F)c(C(=O)O)c5OB4O)c4cc(F)c(O)c(O)c4Cl)C3=O)CC2)ccn1 [Example 619, (R)-3-((R)-2-(3-(1-((2-aminopyridin-4-yl)methyl)piperidin-4-yl)-2-oxoimidazolidine-1-carboxamido)-2-(2-chloro-5-fluoro-3,4-dihydroxyphenyl)acetamido)-7-fluoro-2-hydroxy-3,4-dihydro-2H-benzo[e][1,2]oxaborinine-8-carboxylic acid]",< 1,< 1,< 1,< 1,< 1,,< 1,< 1,< 1,< 1,10 to 50,< 10
"O=C(O)c1c(F)ccc2c1OB(O)[C@@H](NC(=O)[C@H](NC(=O)N1CCN(C3CCN(Cc4cncc(O)c4)CC3)C1=O)c1cc(F)c(O)c(O)c1Cl)C2 (single isomer, unassigned) [Example 614]",< 1,< 1,2 to 4,< 1,< 1,< 1,< 1,< 1,< 1,2 to 4,10 to 50,10 to 50
"Nc1ccc(CN2CCC(N3CCN(C(=O)N[C@@H](C(=O)N[C@H]4Cc5ccc(F)c(C(=O)O)c5OB4O)c4cc(F)c(O)c(O)c4Cl)C3=O)CC2)cn1 (single isomer, unassigned) [Example 618]",< 1,< 1,< 1,< 1,< 1,< 1,< 1,< 1,< 1,2 to 4,10 to 50,10 to 50
"O=C(O)c1c(F)ccc2c1OB(O)[C@@H](NC(=O)[C@H](NC(=O)N1CCN(C3CCN(Cc4ccnnc4)CC3)C1=O)c1cc(F)c(O)c(O)c1Cl)C2 [Example 601, (R)-3-((R)-2-(2-chloro-5-fluoro-3,4-dihydroxyphenyl)-2-(2-oxo-3-(1-(pyridazin-4-ylmethyl)piperidin-4-yl)imidazolidine-1-carboxamido)acetamido)-7-fluoro-2-hydroxy-3,4-dihydro-2H-benzo[e][1,2]oxaborinine-8-carboxylic acid]",2 to 4,< 1,< 1,< 1,< 1,,< 1,< 1,< 1,2 to 4,10 to 50,< 10
"O=C(O)c1c(F)ccc2c1OB(O)[C@@H](NC(=O)[C@@H](NC(=O)N1CCN(C3CCN(S(=O)(=O)c4ccc5[nH]nnc5c4)CC3)C1=O)c1cc(F)c(O)c(O)c1Cl)C2 (single isomer, unassigned) [Example 620]",2 to 4,> 128,2 to 4,> 128,> 128,,2 to 4,< 1,< 1,> 128,< 10,< 10
"NCc1cc(O)cc(C(=O)N2CCC(N3CCN(C(=O)N[C@@H](C(=O)N[C@H]4Cc5ccc(F)c(C(=O)O)c5OB4O)c4cc(F)c(O)c(O)c4Cl)C3=O)CC2)c1 (single isomer, unassigned) [Example 615]",< 1,< 1,< 1,< 1,< 1,,< 1,< 1,< 1,< 1,10 to 50,10 to 50

# Source: patent US20240270762A1, “PENICILLIN-BINDING PROTEIN INHIBITORS” (priority 2021, published 2024)
